Legend:
Type in all cases: physicochemical
[1] = Accelerated test (stability); conditions: 40±2° C., relative humidity 75±5%; for Appearance and color / Content / Related substances: polyethylene film bag; for Related substances: HPLC
Procedure: (§1) In the following test, related substances were determined as follows: HPLC method was used and chromatographic conditions were as follows: C18 column using octadecylsilane bonded silica gel as the filler, isocratic elution using methanol: 0.5% glacial acetic acid solution (10:90) as the mobile phase, and detection wavelength was at 254 nm.
Crystalline Form A of Temozolomide (Form A0 prepared by the method of EXAMPLE 1) was sealed by a polyethylene film bag, placed under conditions of 40±2° C. and a relative humidity of 75±5% for 6 months, sampled and determined at the end of the 1st,2nd, 3rd and 6th month.
Crystalline Form B of Temozolomide (Form B0 prepared by the method of EXAMPLE 6) was sealed with a polyethylene film bag and placed under conditions of 40±2° C. and a relative humidity of 75±5% for 6 months, sampled and determined at the end of the 1st, 2nd, 3rd and 6th month.
Crystalline Form C of Temozolomide (Form C prepared by the method of EXAMPLE 14) was sealed with a polyethylene film bag and placed under conditions of 40±2° C. and a relative humidity of 75±5% for 6 months, sampled and determined at the end of the 1st, 2nd, 3rd and 6th month.

[2] = Light exposure test (stability); conditions: for Appearance and color / Content / Drying loss / Related substances: light intensity 4500±500Lx; for Related substances: HPLC
Procedure: as §1
Crystalline form A of Temozolomide (Form A0 prepared by the method of EXAMPLE 1) was exposed under conditions of light intensity of 4500±500Lx, sampled and determined on the 5th and 10th day.
Crystalline form B of Temozolomide (Form B0 prepared by the method of EXAMPLE 6) was placed, exposed under conditions of light intensity of 4500±500Lx, sampled and determined on the 5th and 10th day.
Crystalline Form C of Temozolomide (Form C prepared by the method of EXAMPLE 14) was placed, exposed under conditions of light intensity of 4500±500Lx, sampled and determined on the 5th and 10th day.

[3] = High humidity test (stability); conditions: for Related substances: HPLC
Procedure: as §1
Crystalline Form A of Temozolomide (Form A0 prepared by the method of EXAMPLE 1) was placed in 25° C. incubator (relative humidity: 75±5%), sampled and determined on the 5th and 10th day.
Crystalline Form B of Temozolomide (Form B0 prepared by the method of EXAMPLE 6) was placed in 25° C. incubator (relative humidity: 75±5%), sampled and determined on the 5th and 10th day.
Crystalline Form C of Temozolomide (Form C prepared by the method of EXAMPLE 14) was placed in 25° C. incubator (relative humidity: 75±5%), sampled and determined on the 5th and 10th day.

[4] = High temperature test (stability); conditions: for Appearance and color / Content / Drying loss / Related substances: 60° C. incubator; for Related substances: HPLC
Procedure: as §1
Crystalline form A of Temozolomide (Form A0 prepared by the method of EXAMPLE 1) was placed in 60° C. incubator, sampled and determined on the 5th and 10th day.
Crystalline Form B of Temozolomide (Form B0 prepared by the method of EXAMPLE 6) was placed in 60° C. incubator, sampled and determined on the 5th and 10th day.
Crystalline Form C of Temozolomide (Form C prepared by the method of EXAMPLE 14) was placed in 60° C. incubator, sampled and determined on the 5th and 10th day.

[5] = Stability test, overall conclusions; conditions: light exposure, high-temperature, high-humidity and accelerated tests
Procedure: as §1
It should be noted that each crystalline form of Form A, Form B and Form C has similar stability properties. Hereinafter, Form A0, Form B0 and Form C were chosen only for illustrative purpose.

[6] = 25° C., relative humidity 75±5%, 0th day
[7] = 25° C., relative humidity 75±5%, 5th day
[8] = 25° C., relative humidity 75±5%, 10th day

Q: What does the source list for `Cn1nnc2c(C(N)=O)ncn2c1=O` [Form C, Temozolomide]?
A: Stability in the accelerated test (conclusion) ([1]; 6 months): stable; Appearance and color ([1]; 0th month): White powder; Content ([1]; 0th month): 99.91%; Related substances ([1]; 0th month): Not detected; Appearance and color ([1]; 1st month): White powder; Content ([1]; 1st month): 99.61%; Related substances ([1]; 1st month): Not detected; Appearance and color ([1]; 2nd month): White powder; Content ([1]; 2nd month): 99.87%; Related substances ([1]; 2nd month): Not detected; Appearance and color ([1]; 3rd month): White powder; Content ([1]; 3rd month): 99.93%; Related substances ([1]; 3rd month): Not detected; Appearance and color ([1]; 6th month): White powder; Content ([1]; 6th month): 99.65%; Related substances ([1]; 6th month): Not detected; Stability in the light exposure test (conclusion) ([2]; 4500±500Lx, 10 days): stable; Appearance and color ([2]; 0th day): White powder; Content ([2]; 0th day): 99.91%; Drying loss ([2]; 0th day): 0.27%; Related substances ([2]; 0th day): Not detected; Appearance and color ([2]; 5th day): White powder; Content ([2]; 5th day): 99.90%; Drying loss ([2]; 5th day): 0.30%; Related substances ([2]; 5th day): Not detected; Appearance and color ([2]; 10th day): White powder; Content ([2]; 10th day): 99.96%; Drying loss ([2]; 10th day): 0.32%; Related substances ([2]; 10th day): Not detected; Stability in the high-humidity test (conclusion) ([3]; 25° C., relative humidity 75±5%, 10 days): stable; Appearance and color [3, 6]: White powder; Content [3, 6]: 99.91%; Weight gain of moisture absorption [3, 6]: 0%; Related substances [3, 6]: Not detected; Appearance and color [3, 7]: White powder; Content [3, 7]: 99.85%; Weight gain of moisture absorption [3, 7]: 0.29%; Related substances [3, 7]: Not detected; Appearance and color [3, 8]: White powder; Content [3, 8]: 99.63%; Weight gain of moisture absorption [3, 8]: 0.47%; Related substances [3, 8]: Not detected; Weight gain of moisture absorption (trend) ([3]; under the high-humidity condition): slightly increased; Appearance and color ([4]; 0th day): White powder; Content ([4]; 0th day): 99.91%; Drying loss ([4]; 0th day): 0.35%; Related substances ([4]; 0th day): Not detected; Appearance and color ([4]; 5th day): White powder; Content ([4]; 5th day): 99.79%; Drying loss ([4]; 5th day): 0.37%; Related substances ([4]; 5th day): Not detected; Appearance and color ([4]; 10th day): White powder; Content ([4]; 10th day): 99.69%; Drying loss ([4]; 10th day): 0.34%; Related substances ([4]; 10th day): Not detected; Stability in the high-temperature test (conclusion) ([4]; 60° C., 10 days): stable; Change in the appearance and color, the drying loss, the content and the related substances [5]: no obvious change

From patent US9714250B2, “Crystalline forms of temozolomide and the method for preparing same” (Jiangsu Tasly Diyi Pharmaceutical Co., Ltd., priority 2013, dated 2017)
